Results published in publication PMC5047629, “Synthesis, Pharmacological Profile and Docking Studies of New Sulfonamides Designed as Phosphodiesterase-4 Inhibitors” (PLoS ONE, 2016).

Columns and labels:
[1] = system: PDEs5-11; assay: PDE selectivity profile evaluated by CEREP; assay type: biochemical, human; conditions: 10 μM; data not shown
Experimental: The selectivity profile of compound 6a (LASSBio-448) toward the human PDE1, PDE2, PDE5-PDE8, PDE10 and PDE11 was evaluated by CEREP.

[2] = system: A/J mice; assay: LPS-induced lung inflammation and airway hyper-reactivity; assay type: in vivo; conditions: LASSBio-448 2.5 and 10 mg/kg oral, cilomilast 1 mg/kg oral, 1 h before LPS, 24 h post-challenge
Experimental: A/J mice were anesthetized with isoflurane aerosol and then challenged with LPS (25μg/25 μL) or phosphate buffered solution (PBS) by intranasal instillation as reported. The analyses were performed 24 h after stimulation. Treatment with LASSBio-448 (2.5–10 mg/kg/mice) or cilomilast (1 mg/kg) was performed orally, 1 h before LPS exposure. LASSBio-448 was dissolved in 0.2% Tween 80, while cilomilast was dissolved in 1 M NaOH and further neutralized with 1 N HCl, before adjusting the final volume with 0.9% NaCl solution (saline). The substances were dissolved immediately before use.
Airflow and transpulmonary pressure were recorded with a Buxco pulmonary mechanics processing system (Buxco Electronics, Sharon, CT), which calculated resistance (cmH2O.s/ml) and dynamic lung compliance (mL/cmH2O) in each breath cycle. Elastance was calculated as the inverse of compliance values. Mice were anesthetized with nembutal (60 mg/kg), and the neuromuscular activity was blocked with bromide pancuronium (1 mg/kg). Animals were allowed to stabilize for 5 min and increasing concentrations of methacholine (3–27 mg/mL) were aerosolized for 5 min each. Baseline pulmonary parameters were assessed with aerosolized phosphate buffer solution (PBS).
The MPO activity present in the lung tissue was colorimetrically determined as described by Hirano (1996), with minor changes. Briefly, after lung perfusion with 20 mM EDTA in 0.9% saline, lung samples were homogenized in Hank´s balanced solution (HBSS) at pH 7.4. The homogenates were centrifuged for 10 min at 1300 xg and 4°C. Red blood cells were removed by hypotonic and hypertonic lysis and suspended cells were re-centrifuged as described above. The pellet was then suspended in HBSS at pH 7.4 containing 0.5% hexadecyltrimethyl ammonium bromide (HTAB). The homogenates were centrifuged for 30 min at 12500 xg and 4°C. The supernatants were then collected and incubated with 0.167 mg/mL of ortho-dianisidine dihydrochloride for 15 min at 37°C, after which 0.0006% H2O2 in 50 mM phosphate buffer at pH 6 was added. The reaction was stopped 10 min later by adding 50 μL of 1% sodium azide. The measurement was done at 460 nm using the SpectraMax M5 microplate reader (Molecular Devices).

[3] = system: guinea-pig tracheal smooth muscle cells; assay: cAMP intracellular levels in airway smooth muscle cells (radioimmunoassay); assay type: cell-based; conditions: 100 μM, S1B Fig
Experimental: Intracellular cAMP concentrations were assayed in primary cultured guinea-pig tracheal smooth muscle cells as reported. Briefly, smooth muscle cells obtained from guinea pig tracheas were cultured in DMEM containing 10% fetal bovine serum, 100 units/ml of penicillin, […] of streptomycin and 2 mM of glutamine for 3 to 7 days. After the third cell splitting, 10^6 cells/well were grown in 24-well plates. At confluence, smooth muscle cells were washed with PBS and incubated with 100 μM LASSBio-448 or forskolin (adenylyl cyclase activator), in the presence or absence of 100 μM SQ22536 (adenylyl cyclase inhibitor) for 30 min. Lysed cells were collected and the intracellular cAMP was evaluated by means of radioimmunoassay (TRK 432–Cyclic AMP^[3H] Biotrak assay system—Amersham Pharmacia Biotech, Buckinghamshire, England) following manufacturer’s guidelines.

[4] = molecular target: T1, PDE4D (Homo sapiens, UniProt Q08499); assay: PDE4D inhibition, IMAP fluorescence polarization protocol; assay type: biochemical
T1 construct: purchased MDS PHARMA
Experimental: (§1) The enzymatic reactions were carried at room temperature in a 96-well black plate by co-incubating 25 μL of 200 nM FAM-cAMP (R7513), 5 μL of putative inhibitory compounds and 20 μL of the PDE4 isoform dissolved in assay buffer (R7364) for 1 h. All enzymes were obtained from human recombinant sources (MDS PHARMA), whereas the other reagents were purchased from Molecular Devices. […] PDE4 inhibitors were dissolved in dimethyl sulfoxide (DMSO) at a final concentration of 0.1%.
(§2) The inhibitory activities of the new sulfonamide derivatives were evaluated for their selectivity against the four isoforms of human PDE4, i.e. PDE4A, PDE4B, PDE4C, and PDE4D, using an IMAP-FP protocol.

[5] = molecular target: T2, PDE4C (Homo sapiens, UniProt Q08493); assay: PDE4C inhibition, IMAP fluorescence polarization protocol; assay type: biochemical
T2 construct: purchased MDS PHARMA
Experimental: as §1, §2

[6] = recombinant enzyme, mean ± SEM of three measurements
[7] = 1 μM, mean ± SEM, 3 experiments

T2 sequence (Q08493 whole entry): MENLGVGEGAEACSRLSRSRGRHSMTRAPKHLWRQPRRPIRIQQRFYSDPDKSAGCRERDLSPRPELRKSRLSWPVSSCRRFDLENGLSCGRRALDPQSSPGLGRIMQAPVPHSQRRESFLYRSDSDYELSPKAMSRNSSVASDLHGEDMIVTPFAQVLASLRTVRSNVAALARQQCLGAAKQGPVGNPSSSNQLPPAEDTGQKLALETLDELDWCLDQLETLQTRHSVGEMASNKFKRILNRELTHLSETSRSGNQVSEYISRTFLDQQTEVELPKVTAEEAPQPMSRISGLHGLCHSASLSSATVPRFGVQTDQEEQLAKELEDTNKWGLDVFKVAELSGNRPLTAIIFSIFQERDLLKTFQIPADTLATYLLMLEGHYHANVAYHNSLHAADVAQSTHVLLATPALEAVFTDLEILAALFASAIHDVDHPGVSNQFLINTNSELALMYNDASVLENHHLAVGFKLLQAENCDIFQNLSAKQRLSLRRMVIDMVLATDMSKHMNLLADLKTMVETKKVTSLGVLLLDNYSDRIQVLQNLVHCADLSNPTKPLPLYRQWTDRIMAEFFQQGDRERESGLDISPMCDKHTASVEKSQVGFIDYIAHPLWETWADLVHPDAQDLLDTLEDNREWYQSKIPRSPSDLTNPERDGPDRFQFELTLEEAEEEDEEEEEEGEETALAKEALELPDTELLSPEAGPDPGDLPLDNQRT
T1 sequence (Q08499 1-673 isoform Q08499-2): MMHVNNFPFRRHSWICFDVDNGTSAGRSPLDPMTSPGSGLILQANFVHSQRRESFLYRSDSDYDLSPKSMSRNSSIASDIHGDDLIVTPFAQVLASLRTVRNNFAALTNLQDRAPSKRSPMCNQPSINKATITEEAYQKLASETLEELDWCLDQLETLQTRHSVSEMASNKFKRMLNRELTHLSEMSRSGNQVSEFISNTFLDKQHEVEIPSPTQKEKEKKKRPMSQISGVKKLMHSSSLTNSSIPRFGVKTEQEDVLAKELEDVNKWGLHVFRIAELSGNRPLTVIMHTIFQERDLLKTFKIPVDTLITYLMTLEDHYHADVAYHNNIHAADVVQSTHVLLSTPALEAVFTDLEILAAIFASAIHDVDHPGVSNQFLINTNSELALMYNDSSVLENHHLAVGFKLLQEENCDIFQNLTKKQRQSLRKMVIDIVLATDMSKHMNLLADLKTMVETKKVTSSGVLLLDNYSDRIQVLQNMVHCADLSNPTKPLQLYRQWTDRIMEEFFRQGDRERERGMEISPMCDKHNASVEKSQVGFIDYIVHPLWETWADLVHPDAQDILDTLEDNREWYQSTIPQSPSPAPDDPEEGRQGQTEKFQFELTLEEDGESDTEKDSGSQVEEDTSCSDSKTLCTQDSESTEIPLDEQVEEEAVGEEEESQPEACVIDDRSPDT

- inhibition at 1 µM ([4]; 1 μM, mean ± SEM, 3 experiments, read-out: PDE4D3 inhibition): 26.5 ± 0.7%
- selective inhibitory index (SI) PDE4D/PDE4A ([4]; ratio of IC50 values): 6.7
- selective inhibitory index (SI) PDE4D/PDE4B ([4]; ratio of IC50 values): 3.3
- IC50 [4, 6]: 4.7 ± 0.09 µM
- PDE4C inhibition [5, 7]: able to inhibit
- inhibition at 1 µM [5, 7]: 33.7 ± 0.4%
- IC50 [5, 6]: 1.1 ± 0.13 µM
SMILES: COc1ccc(CCNS(=O)(=O)c2cc3c(cc2C)OCO3)cc1OC [6a (LASSBio-448), N-(3,4-dimethoxyphenethyl)-6-methylbenzo[d][1, 3]dioxole-5-sulfonamide]
- inhibition of PDEs5-11 [1]: unable to inhibit
- LPS-induced airway hyper-reactivity (lung elastance after methacholine 3–27 mg/ml) ([2]; Fig 9A): dose-dependently prevented
- neutrophil infiltration into the lung tissue (MPO activity) ([2]; Fig 9B): marked reduction
- cAMP intracellular levels in cultured tracheal smooth muscle cells ([3]; levels comparable to forskolin): up-regulated
- cAMP elevating effect after pre-treatment with SQ22,536 ([3]; pre-treatment with 100 μM SQ22,536): clearly abrogated
